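Step 1: Grow cells in 96-well plates. Step 2: Expose to compound for 48 hours at 5 concentrations. Step 3: Interpolate endpoints linearly; if unreached, use highest concentration. TGI: concentration producing complete growth inhibition.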
How the values were obtained:
Experiment in all cases: DTP human tumour cell line panel, 48 h
[1] = system: SF-295 CNS
[2] = system: CAKI-1 renal
[3] = system: HCC-2998 colon
[4] = system: HOP-62 NSCLC
[5] = system: NCI-H226 lung
[6] = system: HCT-116 colon
[7] = system: UO-31 renal
[8] = system: OVCAR-8 ovarian
[9] = system: M14 melanoma
[10] = system: SK-MEL-5 melanoma
[11] = system: ACHN renal
[12] = system: SNB-19 CNS
[13] = system: HT29 colon
[14] = system: RPMI-8226 leukemia
[15] = system: UACC-257 melanoma
[16] = system: EKVX NSCLC
[17] = system: DU-145 prostate
[18] = system: PC-3 prostate
[19] = system: NCI/ADR-RES ovarian

| Compound | TGI [1] [µM] | TGI [2] [µM] | TGI [3] [µM] | TGI [4] [µM] | TGI [5] [µM] | TGI [6] [µM] | TGI [7] [µM] | TGI [8] [µM] | TGI [9] [µM] | TGI [10] [µM] | TGI [11] [µM] | TGI [12] [µM] | TGI [13] [µM] | TGI [14] [µM] | TGI [15] [µM] | TGI [16] [µM] | TGI [17] [µM] | TGI [18] [µM] | TGI [19] [µM] |
| --- | --- | --- | --- | --- | --- | --- | --- | --- | --- | --- | --- | --- | --- | --- | --- | --- | --- | --- | --- |
| CCOc1ccccc1NC(=O)CSc1nnc(Cc2ccccc2)o1 | > 100 | 37.6 | > 100 | > 100 | 57.5 | 84.5 | 52 | 54.8 | 66.5 | 38.8 | 46.3 | 48.7 | > 100 | > 100 | 98.6 | – | – | – | – |
| COc1ccc2c(c1)CC[C@@H]1C2CC[C@]2(C)C(=N\O)/C(=N/O)CC12 (stereo partly specified) | 23.9 | 24.1 | 37.8 | 26 | 27.1 | 29.5 | 26.5 | 33.7 | 32.9 | 25.7 | 33.6 | 32.9 | 5.14 | 35.2 | 32.9 | 38.9 | – | – | – |
| CC1(OCc2ccccc2)C(=O)N2C1N(C(=O)OCc1ccccc1)CC2(C)C (stereo unspecified) | > 100 | – | > 100 | > 100 | > 100 | > 100 | > 100 | > 100 | > 100 | 33.5 | > 100 | > 100 | > 100 | 95.7 | > 100 | > 100 | – | – | – |
| Cc1ccc([N+]2=NC(c3ccc([N+](=O)[O-])cc3)=NN(c3ccccc3)C2)cc1 | > 100 | – | > 100 | > 100 | > 100 | > 100 | > 100 | > 100 | – | > 100 | > 100 | > 100 | > 100 | > 100 | > 100 | > 100 | – | – | – |
| [N-]=[N+]=CC(=O)OC1CCc2ccccc21 (stereo unspecified) | > 100 | 52.5 | > 100 | > 100 | > 100 | > 100 | 29 | – | – | > 100 | 30.3 | > 100 | > 100 | > 100 | > 100 | > 100 | 48.7 | > 100 | – |
| ClCCN(CC#CCCCC#CCN(CCCl)CCCl)CCCl | 28.1 | 32.7 | 32.9 | 29.3 | 37.2 | 25.3 | 47 | 23.9 | 28.6 | 24.3 | 15.2 | 27.6 | 24.8 | 13.4 | 29.2 | 44.8 | – | – | 58.1 |
| CC(C)NC1CCCCC2c3cc(F)ccc3[C@]12O (stereo partly specified) | > 100 | > 100 | > 100 | > 100 | > 100 | > 100 | > 100 | > 100 | > 100 | > 100 | > 100 | > 100 | > 100 | > 100 | > 100 | > 100 | – | – | – |
| CC1OC1P(=O)(O)O (stereo unspecified) | > 100 | > 100 | > 100 | > 100 | – | > 100 | > 100 | > 100 | – | > 100 | > 100 | > 100 | > 100 | > 100 | > 100 | > 100 | > 100 | > 100 | – |
| COc1cc(C(=O)O)cc2c1[nH]c1ccccc12 | – | – | > 25 | > 25 | > 25 | > 25 | > 25 | > 25 | > 25 | > 25 | > 25 | > 25 | > 25 | > 25 | – | – | – | – | – |
| CC(=O)OC1COC(n2c(O)c(N=Nc3ccc([N+](=O)[O-])cc3)c3cc(Br)c([N+](=O)[O-])cc32)C(OC(C)=O)C1OC(C)=O (stereo unspecified) | 67.1 | > 100 | > 100 | > 100 | > 100 | > 100 | – | > 100 | > 100 | > 100 | 93.6 | > 100 | > 100 | > 100 | > 100 | > 100 | – | – | – |
| CCN1C(=O)/C(=C\c2coc3ccccc3c2=O)SC1=S | > 100 | > 100 | > 100 | > 100 | > 100 | > 100 | > 100 | > 100 | > 100 | > 100 | > 100 | > 100 | > 100 | > 100 | > 100 | > 100 | – | – | – |
| CC(/C=C/c1ccccc1)=N\N=C(C)\C=C\c1ccccc1 | > 100 | – | > 100 | > 100 | > 100 | > 100 | – | > 100 | > 100 | > 100 | > 100 | – | > 100 | > 100 | > 100 | > 100 | – | – | – |
| O=C1CSC(c2c[nH]c3ccccc23)N1c1cccc([N+](=O)[O-])c1 (stereo unspecified) | > 100 | – | > 100 | > 100 | – | > 100 | > 100 | > 100 | > 100 | > 100 | – | > 100 | > 100 | > 100 | > 100 | > 100 | > 100 | > 100 | – |
